US20220039384A1, “SELECTIVE WEED CONTROL WITH HALAUXIFEN OR 4-AMINO-3-CHLORO-5-FLUORO-6-(4-CHLORO-2-FLUORO-3-METHOXYPHENYL) PYRIDINE-2-CARBOXYLIC ACID OR DERIVATIVES THEREOF IN VINEYARDS OR PERENNIAL CROPS” (Corteva Agriscience LLC, priority 2013, published 2022)

Assays:
[1] = test system: grapevines and perennial crops; test: Crop safety, general statement; type: in vivo; conditions: post-emergence application rates of ≤20 g ae/ha; dormant application or spring application directed under the crops
Description: (§1) Additional examples of application rates for Compound I as a pre-emergence and post-emergence application include 0.25 to 50 g ae/ha, 0.25 to 45 g ae/ha, 0.25 to 40 g ae/ha, 0.25 to 35 g ae/ha, 0.25 to 30 g ae/ha, 0.25 to 25 g ae/ha, 0.25 to 20 g ae/ha, 0.25 to 15 g ae/ha, 0.25 to 10 g ae/ha, 0.25 to 5 g ae/ha, 2.5 to 50 g ae/ha, 5 to 50 g ae/ha, 10 to 50 g ae/ha, 15 to 50 g ae/ha, 20 to 50 g ae/ha, 25 to 50 g ae/ha, 30 to 50 g ae/ha, 35 to 50 g ae/ha, 40 to 50 g ae/ha, 45 to 50 g ae/ha, 5 to 40 g ae/ha, 10 to 40 g ae/ha, 15 to 40 g ae/ha, 20 to 40 g ae/ha, 25 to 40 g ae/ha, 30 to 40 g ae/ha, 35 to 40 g ae/ha, 2.5 to 35 g ae/ha, 2.5 to 30 g ae/ha, 2.5 to 25 g ae/ha, 2.5 to 20 g ae/ha, 2.5 to 15 g ae/ha, 2.5 to 10 g ae/ha, 2.5 to 5 g ae/ha, 5 to 35 g ae/ha, 10 to 30 g ae/ha, 15 to 25 g ae/ha, and 15 to 20 g ae/ha. Further examples of application rates for Compound I as a pre-emergence and post-emergence application include 0.25 g ae/ha, 0.5 g ae/ha, 0.75 g ae/ha, 1 g ae/ha, 1.25 g ae/ha, 1.5 g ae/ha, 1.75 g ae/ha, 2 g ae/ha, 2.25 g ae/ha, 2.5 g ae/ha, 3 g ae/ha, 4 g ae/ha, 5 g ae/ha, 6 g ae/ha, 7 g ae/ha, 8 g ae/ha, 9 g ae/ha, 10 g ae/ha, 12 g ae/ha, 14 g ae/ha, 16 g ae/ha, 18 g ae/ha, 20 g ae/ha, 22 g ae/ha, 24 g ae/ha, 26 g ae/ha, 28 g ae/ha, 30 g ae/ha, 32 g ae/ha, 34 g ae/ha, 36 g ae/ha, 38 g ae/ha, 40 g ae/ha, 42 g ae/ha, 44 g ae/ha, 46 g ae/ha, 48 g ae/ha, and 50 g ae/ha. […]

[2] = test system: commercially relevant broadleaf and grass weeds; test: Pre- and post-emergence weed control, general statement; type: in vivo
Description: as §1

[3] = test system: ERIBO (Conyza bonariensis, hairy fleabane); test: Field trial, post-emergence directed spring application (April), California vineyards: visual weed control; type: in vivo; conditions: 35 g ai/ha
Description: (§2) As used herein, selective pre- and post-emergence control of undesirable vegetation means preventing, reducing, killing, or otherwise adversely modifying the development of the undesirable vegetation in the presence of crop plants with limited adverse effect on the crop plants. For example, a broadleaf weed control of 80% (rated visually) with crop injury of less than or equal to 20% (rated visually) would constitute selective control. In some embodiments the adverse effect on crop plants is limited to less than 10% visually rated crop injury. Visual crop injury is a composite rating accounting for all phytotoxic effects including chlorosis, necrosis, growth inhibition, epinasty, delays in maturity and seed or fruit deformity. Visual weed control is a composite rating accounting for reductions in pest plant biomass and/or stand reduction.
(§3) Small plot research experiments were conducted in Fresno, Calif., USA to evaluate the pre-emergence and post-emergence herbicidal weed control activity and the vines crop tolerance to pre-emergence and post-emergence application of Compound I and Compound II to the weeds. Application water volume of 100 to 187 liters per hectare (L/ha) was used for all experiments. All treatments were applied with a standard small plot carbon dioxide (CO2) backpack sprayer. All treatments were tank-mixed with Crop Oil Concentrate (COC), a well known adjuvant, at 2.34 L/ha. Experimental emulsifiable concentrate (EC) formulations were used for Compounds I and II. The dimethylammonium (DMA) salt of glyphosate was used in all trials. Pindar® GT is a commercial formulation containing a pre-mix of penoxsulam+oxyfluorfen (10+476 grams of active ingredient per liter (g ai/L), respectively). Vine crop stage was dormant (no leaves on the vines during the winter) or early spring growth at the time of Compound I or Compound II application. Generally, weeds were not emerged for the pre-emergence treatments or were at the two to six-leaf stage at the time of the post-emergence herbicide application.
(§4) Tables 1, 2 and 6 provide weed control results from pre-emergence applications of Compounds I and/or II prior to weed emergence; Tables 4, 7 and 8 provide weed control results from post-emergence applications of Compounds I and/or II applied to actively growing weeds; Tables 3 and 5 provide vine response data from pre-emergence and post-emergence applications of Compound I respectively.

[4] = test system: SETFA (Setaria faberi, giant foxtail); test: as above; type: in vivo; conditions: 35 g ai/ha
Description: as §2, §3, §4

[5] = test system: PANCA (Panicum capillare, witchgrass); test: as above; type: in vivo; conditions: 35 g ai/ha
Description: as §2, §3, §4

[6] = test system: AGRRE (Agropyron repens, quackgrass); test: as above; type: in vivo; conditions: 35 g ai/ha
Description: as §2, §3, §4

[7] = test system: MALPA (Malva parviflora, smallflower malva); test: as above; type: in vivo; conditions: 35 g ai/ha
Description: as §2, §3, §4

[8] = test system: EROCI (Erodium cicutarium, redstem filaree); test: as above; type: in vivo; conditions: 35 g ai/ha
Description: as §2, §3, §4

VITSS (Vitis spp, grape) = conditions: in vivo
Experimental: as §3, with “herbicide application. […]” for “herbicide application.”

SMILES | crop injury to grapevines and perennial crops [1] | efficacy on commercially relevant broadleaf and grass weeds ([2]; application rate of 2.5 to 40 g ae/ha, pre-emergence and post-emergence application) | efficacy on commercially relevant broadleaf and grass weeds ([2]; application rate of 2.5 to 50 g ai/ha, pre-emergence or post-emergence application) | % Visual Control 60 DAA ERIBO [3] [%] | % Visual Control 60 DAA SETFA [4] [%] | % Visual Control 60 DAA PANCA [5] [%] | % Visual Control 60 DAA AGRRE [6] [%] | % Visual Control 60 DAA MALPA [7] [%] | % Visual Control 60 DAA EROCI [8] [%] | VITSS 60 DAA Node Count (VITSS (Vitis spp, grape)) | VITSS 60 DAA Vine Length (cm) (VITSS (Vitis spp, grape))
COc1c(Cl)ccc(-c2cc(N)c(Cl)c(C(=O)O)n2)c1F [Compound I, 4-amino-3-chloro-6-(4-chloro-2-fluoro-3-methoxyphenyl)pyridine-2-carboxylic acid] | little to no crop injury | highly efficacious |  |  |  |  |  |  |  |  | 
COc1c(Cl)ccc(-c2nc(C(=O)O)c(Cl)c(N)c2F)c1F [Compound II, 4-amino-3-chloro-5-fluoro-6-(4-chloro-2-fluoro-3-methoxyphenyl)pyridine-2-carboxylic acid] | little to no crop injury |  | highly efficacious |  |  |  |  |  |  |  | 
COc1cnc(OC)n2nc(NS(=O)(=O)c3c(OCC(F)F)cccc3C(F)(F)F)nc12 [Penoxsulam, reference compound] |  |  |  | 85 | 97 | 85 | 87 | 85 | 87 | 20 | 89
